Measurements reported in the NIST ThermoML archive (doi:10.1021/acs.jced.7b00782).
Numbers after ± are expanded uncertainties.

Settings: Closed cell (Static) method

vapor or sublimation pressure (105.89 K, Crystal) [kPa] | vapor or sublimation pressure (135.8 K, Liquid) [kPa] | vapor or sublimation pressure (146.22 K, Liquid) [kPa] | SMILES | vapor or sublimation pressure (105.89 K, Liquid) [kPa] | vapor or sublimation pressure (127.32 K, Liquid) [kPa]
 |  |  | [C-]#[O+] [carbon monoxide] | 830 ± 40 | 2682 ± 40
13.6 ± 20 | 410.9 ± 26 | 987.8 ± 30 | [N]=O [nitrogen oxide (NO)] |  | 188.3 ± 23
 | 2605.6 ± 58 | 4028.9 ± 58 | [Ar] [argon] |  | 
